Experimental data as given in patent US20040242650A1, “Extended dosing regimen” (priority 2003, published 2004).
Where two headings read alike, the source gives them in different places.

Experiments:
[1] = Pharmacokinetic profiles of patients on the extended dosing regimen (plasma, LCMS/MS, day 15); format: in vivo; conditions: for AUC / half-life / Cmax / concentration at 15 day / Tmax: human, plasma, po; for concentration at 15 day: read-out: Cmin
Method: (§1) A total of 43 patients were enrolled in the study. The tumor types were as follows: colorectal (23), sarcoma (5), mesothelioma (3), salivary gland (2), endometrial (2), unknown (2), hepatoma (1), melanoma (1), renal cell (1), lung (1), ovary (1), and granulosa cell (1). Patients were treated once a day (QD) or twice a day (BID) for 21 days with N-[2-[(4-hydroxyphenyl)amino]-3-pyridyl]-4-methoxybenzenesulfonamide followed by a 7-day period where no drug was received. Doses were escalated by 50 mg/day (25 mg BID). Three patients were initially treated at each dose level. […] If additional patients experienced dose-limiting toxicity, on occasion the dose level was expanded to nine patients to further assess tolerability. Response assessment was performed every two cycles.
In evaluating the pharmacokinetic profiles of the patients, plasma samples were collected pre-dose and over 6 hours following dosing on day 15. Plasma concentrations of N-[2-[(4-hydroxyphenyl)amino]-3-pyridyl]-4-methoxybenzenesulfonamide were determined by a validated LCMS/MS assay. Pharmacokinetic parameter estimates were obtained using noncompartmental methods, and included maximum observed concentration (Cmax), time to Cmax (Tmax), minimum observed concentration (Cmin), half-life (t1/2), and area under the plasma concentration-time profile over a dosing interval (AUCτ). To facilitate calculation of day 15 AUCs, pre-dose concentrations at the beginning and end of the dosing interval were assumed to be equal. Results are summarized below (Table 2).

[2] = Dose limiting toxicity in patients, 21-day QD or BID dosing; format: in vivo
Method: as §1

[3] = 25 mg, 25 mg BID oral, day 15, plasma, N=2
[4] = 25 mg, 25 mg QD oral, day 15, plasma, N=4
[5] = 50 mg, 50 mg BID oral, day 15, plasma, N=2
[6] = 50 mg, 50 mg QD oral, day 15, plasma, N=3
[7] = 75 mg, 75 mg BID oral, day 15, plasma, N=3
[8] = 100 mg, 100 mg BID oral, day 15, plasma, N=3
[9] = 100 mg, 100 mg QD oral, day 15, plasma, N=3
[10] = 200 mg, 200 mg QD oral, day 15, plasma, N=2

COc1ccc(S(=O)(=O)Nc2cccnc2Nc2ccc(O)cc2)cc1 [N-[2-[(4-hydroxyphenyl)amino]-3-pyridyl]-4-methoxybenzenesulfonamide]
Cmin ([1]; 150 mg QD oral, day 15, plasma, N=3): 700 ± 400 ng/mL | accumulation of plasma concentrations ([1]; QD or BID dosing): accumulated minimally | variation of Tmax and t1/2 with dose ([1]; across doses studied): did not appear to vary with dose | dose proportionality of plasma concentrations ([1]; across the range of doses studied): dose-proportional (linear) pharmacokinetics | Cmin concentrations, BID vs QD regimens ([1]; for a given daily dose): tended to be greater for BID regimens compared to QD regimens | AUC ([1]; 25 mg, 25 mg BID oral, day 15, N=2, AUC0-12): 9100 ± 400 ng·h/mL | half-life ([1]; 25 mg, 25 mg BID oral, day 15, N=2, harmonic mean and pseudo standard deviation, read-out: t1/2 (converted)): 3.8 ± 1.7 h | Cmax [1, 3]: 2000 ± 600 ng/mL | concentration at 15 day [1, 3]: 300 ng/mL | Tmax ([1]; 25 mg, 25 mg BID oral, day 15, plasma, N=2, read-out: Tmax): 2.3 ± 2.5 h | AUC ([1]; 25 mg, 25 mg QD oral, day 15, N=4, AUC0-24): 9000 ± 2900 ng·h/mL | half-life ([1]; 25 mg, 25 mg QD oral, day 15, N=4, harmonic mean and pseudo standard deviation, read-out: t1/2 (converted)): 6.3 ± 0.2 h | Cmax [1, 4]: 1700 ± 300 ng/mL | concentration at 15 day [1, 4]: 100 ng/mL | Tmax ([1]; 25 mg, 25 mg QD oral, day 15, plasma, N=4, read-out: Tmax): 1.3 ± 0.5 h | AUC ([1]; 50 mg, 50 mg BID oral, day 15, N=2, AUC0-12): 16400 ± 3200 ng·h/mL | half-life ([1]; 50 mg, 50 mg BID oral, day 15, N=2, harmonic mean and pseudo standard deviation, read-out: t1/2 (converted)): 4 ± 0.6 h | Cmax [1, 5]: 5000 ± 900 ng/mL | concentration at 15 day [1, 5]: 400 ± 200 ng/mL | Tmax ([1]; 50 mg, 50 mg BID oral, day 15, plasma, N=2, read-out: Tmax): 0.5 h | AUC ([1]; 50 mg, 50 mg QD oral, day 15, N=3, AUC0-24): 20400 ± 5000 ng·h/mL | half-life ([1]; 50 mg, 50 mg QD oral, day 15, N=3, harmonic mean and pseudo standard deviation, read-out: t1/2 (converted)): 4.6 ± 2.4 h | Cmax [1, 6]: 3500 ± 200 ng/mL | concentration at 15 day [1, 6]: 100 ± 100 ng/mL | Tmax ([1]; 50 mg, 50 mg QD oral, day 15, plasma, N=3, read-out: Tmax): 1.7 ± 0.6 h | AUC ([1]; 75 mg, 75 mg BID oral, day 15, N=3, AUC0-12): 17000 ± 3600 ng·h/mL | half-life ([1]; 75 mg, 75 mg BID oral, day 15, N=3, harmonic mean and pseudo standard deviation, read-out: t1/2 (converted)): 5.3 ± 0.9 h | Cmax [1, 7]: 3700 ± 1200 ng/mL | concentration at 15 day [1, 7]: 600 ng/mL | Tmax ([1]; 75 mg, 75 mg BID oral, day 15, plasma, N=3, read-out: Tmax): 1.5 ± 0.9 h | AUC ([1]; 100 mg, 100 mg BID oral, day 15, N=3, AUC0-12): 24100 ± 10000 ng·h/mL | half-life ([1]; 100 mg, 100 mg BID oral, day 15, N=3, harmonic mean and pseudo standard deviation, read-out: t1/2 (converted)): 6.1 ± 2.3 h | Cmax [1, 8]: 3500 ± 1300 ng/mL | concentration at 15 day [1, 8]: 900 ± 400 ng/mL | Tmax ([1]; 100 mg, 100 mg BID oral, day 15, plasma, N=3, read-out: Tmax): 2.3 ± 1.5 h | AUC ([1]; 100 mg, 100 mg QD oral, day 15, N=3, AUC0-24): 39500 ± 7900 ng·h/mL | half-life ([1]; 100 mg, 100 mg QD oral, day 15, N=3, harmonic mean and pseudo standard deviation, read-out: t1/2 (converted)): 5.8 ± 1.3 h | Cmax [1, 9]: 8400 ± 900 ng/mL | concentration at 15 day [1, 9]: 200 ± 100 ng/mL | Tmax ([1]; 100 mg, 100 mg QD oral, day 15, plasma, N=3, read-out: Tmax): 1.7 ± 0.6 h | AUC ([1]; 150 mg, 150 mg QD oral, day 15, N=3, AUC0-24): 55100 ± 12200 ng·h/mL | half-life ([1]; 150 mg, 150 mg QD oral, day 15, N=3, harmonic mean and pseudo standard deviation, read-out: t1/2 (converted)): 8.5 ± 1.5 h | Cmax ([1]; 150 mg, 150 mg QD oral, day 15, plasma, N=3): 8200 ± 2300 ng/mL | Tmax ([1]; 150 mg, 150 mg QD oral, day 15, plasma, N=3, read-out: Tmax): 1.2 ± 0.8 h | AUC ([1]; 200 mg, 200 mg QD oral, day 15, N=2, AUC0-24): 60200 ± 34200 ng·h/mL | half-life ([1]; 200 mg, 200 mg QD oral, day 15, N=2, harmonic mean and pseudo standard deviation, read-out: t1/2 (converted)): 7 ± 1 h | Cmax [1, 10]: 9100 ± 5900 ng/mL | concentration at 15 day [1, 10]: 500 ± 300 ng/mL | Tmax ([1]; 200 mg, 200 mg QD oral, day 15, plasma, N=2, read-out: Tmax): 2 h | Tmax ([1]; oral dosing, all regimens, read-out: overall mean Tmax): 1.5 h | half-life ([1]; oral dosing, all regimens, read-out: overall mean t1/2 (converted)): 6 h | absorption following oral dosing ([1]; oral dosing, patients): rapidly absorbed | dose limiting toxicity ([2]; patients receiving up to 150 mg of drug per day): No dose limiting toxicity | dose limiting toxicities observed ([2]; patients, QD or BID for 21 days followed by 7 days off): ileus, peripheral neuropathy, fatigue, and abdominal pain
